Assay results as given in PubChem BioAssay AID256 (DTP/NCI, 2004).
Several values for one entry are separate records, joined by “and”; a condition that tells them apart may be missing. Identical values can stand only once. Toxic doses and inconclusive results are not listed. The calls were made as follows: active = survival T/C of 150% or more; inactive = T/C below 125% in these data.

Test system: CD2F1 mice, L1210 leukemia ip, survival T/C
Assay: NCI In Vivo Anticancer Drug Screen. Data for tumor model L1210 Leukemia (intraperitoneal) in CD2F1 (CDF1) mice
Details: higher = longer survival
In short: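 Vehicle-treated tumor-bearing mice served as controls (C) for compound-treated mice (T). Reported figure is T divided by C.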

[1] = endpoint: mean survival time, dose: 12.5 mg/kg/injection, schedule: Q04DX003 (ip), vehicle: saline with Tween-80
[2] = endpoint: mean survival time, dose: 25.0 mg/kg/injection, schedule: Q04DX003 (ip), vehicle: saline with Tween-80
[3] = endpoint: mean survival time, dose: 100.0 mg/kg/injection, schedule: Q01DX001 (ip), vehicle: saline
[4] = endpoint: mean survival time, dose: 100.0 mg/kg/injection, schedule: Q04DX003 (ip), vehicle: saline with Tween-80
[5] = endpoint: mean survival time, dose: 100.0 mg/kg/injection, schedule: Q04DX003 (ip), vehicle: saline
[6] = endpoint: mean survival time, dose: 200.0 mg/kg/injection, schedule: Q04DX003 (ip), vehicle: saline with Tween-80
[7] = endpoint: mean survival time, dose: 200.0 mg/kg/injection, schedule: Q04DX003 (ip), vehicle: saline
[8] = endpoint: mean survival time, dose: 400.0 mg/kg/injection, schedule: Q04DX003 (ip), vehicle: saline with Tween-80
[9] = endpoint: mean survival time, dose: 400.0 mg/kg/injection, schedule: Q04DX003 (ip), vehicle: saline

Measured: T/C

CS(=O)(=O)CC#N
inactive: endpoint: mean survival time, dose: 6.25 mg/kg/injection, schedule: Q04DX002 (ip), vehicle: saline with Tween-80 91 % of control and 109 % of control | endpoint: mean survival time, dose: 12.5 mg/kg/injection, schedule: Q01DX001 (ip), vehicle: saline with Tween-80 93 % of control | endpoint: mean survival time, dose: 12.5 mg/kg/injection, schedule: Q01DX009 (ip), vehicle: saline 92 % of control | endpoint: mean survival time, dose: 12.5 mg/kg/injection, schedule: Q04DX002 (ip), vehicle: saline with Tween-80 91 % of control and 102 % of control | [1] 97 % of control | endpoint: mean survival time, dose: 25.0 mg/kg/injection, schedule: Q01DX001 (ip), vehicle: saline with Tween-80 106 % of control | endpoint: mean survival time, dose: 25.0 mg/kg/injection, schedule: Q01DX009 (ip), vehicle: saline 92 % of control and 98 % of control | endpoint: mean survival time, dose: 25.0 mg/kg/injection, schedule: Q04DX002 (ip), vehicle: saline with Tween-80 94 % of control and 101 % of control | endpoint: mean survival time, dose: 25.0 mg/kg/injection, schedule: Q04DX002 (ip), vehicle: saline 99 % of control and 103 % of control | [2] 97 % of control | endpoint: mean survival time, dose: 50.0 mg/kg/injection, schedule: Q01DX001 (ip), vehicle: saline with Tween-80 100 % of control | endpoint: mean survival time, dose: 50.0 mg/kg/injection, schedule: Q04DX002 (ip), vehicle: saline 100 % of control

N=C(N)c1ccc(N=NNc2ccc(C(=N)N)cc2)cc1
inactive: endpoint: median survival time, dose: 12.5 mg/kg/injection, schedule: Q01DX009 (ip), vehicle: saline with Tween-80 117 % of control | endpoint: median survival time, dose: 25.0 mg/kg/injection, schedule: Q01DX009 (ip), vehicle: saline with Tween-80 102 % of control

OCC1OC(c2cccs2)C(O)C1O (stereo not given)
inactive: endpoint: median survival time, dose: 12.5 mg/kg/injection, schedule: Q01DX005 (ip), vehicle: saline 102 % of control | endpoint: median survival time, dose: 25.0 mg/kg/injection, schedule: Q01DX005 (ip), vehicle: saline 98 % of control | endpoint: median survival time, dose: 50.0 mg/kg/injection, schedule: Q01DX005 (ip), vehicle: saline 92 % of control | endpoint: median survival time, dose: 100.0 mg/kg/injection, schedule: Q01DX005 (ip), vehicle: saline 98 % of control | endpoint: median survival time, dose: 200.0 mg/kg/injection, schedule: Q01DX005 (ip), vehicle: saline 106 % of control

CC1(C)OCC(C2OC3OC(C)(C)OC3C2O)O1 (stereo not given)
inactive: [3] 105 % of control | [4] 100 % of control | [5] 97 % of control | endpoint: mean survival time, dose: 200.0 mg/kg/injection, schedule: Q01DX001 (ip), vehicle: saline 103 % of control | [6] 95 % of control | [7] 96 % of control | endpoint: mean survival time, dose: 400.0 mg/kg/injection, schedule: Q01DX001 (ip), vehicle: saline 103 % of control | [8] 103 % of control | [9] 100 % of control

NNC(=O)c1ccc(Cl)cc1Cl
inactive: endpoint: mean survival time, dose: 6.25 mg/kg/injection, schedule: Q04DX003 (ip), vehicle: saline with Tween-80 97 % of control | [1] 101 % of control | [2] 103 % of control

C=C1C(=O)OC2C1CCC(C)C1(O)C=CC(=O)C21C (stereo not given)
inactive: endpoint: mean survival time, dose: 50.0 mg/kg/injection, schedule: Q01DX001 (ip), vehicle: saline 107 % of control | [3] 97 % of control

CCCCOC(=S)S.[Pt]
inactive: endpoint: mean survival time, dose: 18.75 mg/kg/injection, schedule: Q04DX003 (ip), vehicle: saline with Tween-80 101 % of control | endpoint: mean survival time, dose: 37.5 mg/kg/injection, schedule: Q04DX003 (ip), vehicle: saline with Tween-80 93 % of control | endpoint: mean survival time, dose: 75.0 mg/kg/injection, schedule: Q04DX003 (ip), vehicle: saline with Tween-80 101 % of control | endpoint: mean survival time, dose: 150.0 mg/kg/injection, schedule: Q04DX003 (ip), vehicle: saline with Tween-80 101 % of control | endpoint: mean survival time, dose: 300.0 mg/kg/injection, schedule: Q04DX003 (ip), vehicle: saline with Tween-80 97 % of control

S=C(Nc1ccc(Cl)c(Cl)c1)N1c2ccccc2-n2cccc2C1c1cccnc1 (stereo not given)
inactive: endpoint: mean survival time, dose: 12.5 mg/kg/injection, schedule: Q01DX009 (ip), vehicle: Klucel (hydroxypropylcellulose) (HPC) 96 % of control and 104 % of control | endpoint: mean survival time, dose: 25.0 mg/kg/injection, schedule: Q01DX009 (ip), vehicle: Klucel (hydroxypropylcellulose) (HPC) 98 % of control and 105 % of control | endpoint: mean survival time, dose: 50.0 mg/kg/injection, schedule: Q01DX009 (ip), vehicle: Klucel (hydroxypropylcellulose) (HPC) 104 % of control and 109 % of control | endpoint: mean survival time, dose: 100.0 mg/kg/injection, schedule: Q01DX009 (ip), vehicle: Klucel (hydroxypropylcellulose) (HPC) 113 % of control and 114 % of control and 107 % of control | endpoint: mean survival time, dose: 200.0 mg/kg/injection, schedule: Q01DX009 (ip), vehicle: Klucel (hydroxypropylcellulose) (HPC) 115 % of control and 120 % of control and 123 % of control | endpoint: mean survival time, dose: 400.0 mg/kg/injection, schedule: Q01DX009 (ip), vehicle: Klucel (hydroxypropylcellulose) (HPC) 112 % of control

CCC(C)CC(=O)O (stereo not given)
inactive: endpoint: mean survival time, dose: 100.0 mg/kg/injection, schedule: Q01DX009 (ip), vehicle: saline 95 % of control | [5] 102 % of control | endpoint: mean survival time, dose: 200.0 mg/kg/injection, schedule: Q01DX009 (ip), vehicle: saline 98 % of control | [7] 102 % of control | endpoint: mean survival time, dose: 400.0 mg/kg/injection, schedule: Q01DX009 (ip), vehicle: saline 96 % of control | [9] 97 % of control

CC#CN(CC)CC
inactive: endpoint: mean survival time, dose: 75.0 mg/kg/injection, schedule: Q01DX001 (ip), vehicle: saline 105 % of control | endpoint: mean survival time, dose: 150.0 mg/kg/injection, schedule: Q01DX001 (ip), vehicle: saline 106 % of control

C/C=C(\C)C(=O)OC1C(C)=C2C(C1OC(=O)CCCCC)C(C)(OC(C)=O)CC(OC(=O)CCC)C1(O)C2OC(=O)C1(C)O (stereo not given)
inactive: endpoint: median survival time, dose: 0.5 mg/kg/injection, schedule: Q01DX005 (ip), vehicle: Klucel (hydroxypropylcellulose) (HPC) 113 % of control | endpoint: median survival time, dose: 1.0 mg/kg/injection, schedule: Q01DX005 (ip), vehicle: Klucel (hydroxypropylcellulose) (HPC) 118 % of control | endpoint: median survival time, dose: 2.0 mg/kg/injection, schedule: Q01DX005 (ip), vehicle: Klucel (hydroxypropylcellulose) (HPC) 122 % of control

Nc1nc(-c2ccccc2)nc2c1=NC(c1ccccc1)N=2 (stereo not given)
inactive: endpoint: mean survival time, dose: 12.5 mg/kg/injection, schedule: Q01DX005 (ip), vehicle: other 96 % of control | endpoint: mean survival time, dose: 25.0 mg/kg/injection, schedule: Q01DX005 (ip), vehicle: other 98 % of control | endpoint: mean survival time, dose: 50.0 mg/kg/injection, schedule: Q01DX005 (ip), vehicle: other 98 % of control | endpoint: mean survival time, dose: 100.0 mg/kg/injection, schedule: Q01DX005 (ip), vehicle: other 93 % of control | endpoint: mean survival time, dose: 200.0 mg/kg/injection, schedule: Q01DX005 (ip), vehicle: other 93 % of control

Nc1ccnc(SCCCOc2ccccc2)n1
inactive: endpoint: mean survival time, dose: 100.0 mg/kg/injection, schedule: Q04DX002 (ip), vehicle: saline with Tween-80 104 % of control | endpoint: mean survival time, dose: 200.0 mg/kg/injection, schedule: Q04DX002 (ip), vehicle: saline with Tween-80 101 % of control | endpoint: mean survival time, dose: 400.0 mg/kg/injection, schedule: Q04DX002 (ip), vehicle: saline with Tween-80 97 % of control

CN=C(NC)c1cccc(NC(=O)/C=C\c2ccc(/C=C/C(=O)Nc3cccc(C(=NC)NC)c3)cc2)c1
inactive: endpoint: median survival time, dose: 1.25 mg/kg/injection, schedule: Q01DX009 (ip), vehicle: saline 101 % of control | endpoint: median survival time, dose: 2.5 mg/kg/injection, schedule: Q01DX009 (ip), vehicle: saline 107 % of control | endpoint: median survival time, dose: 5.0 mg/kg/injection, schedule: Q01DX009 (ip), vehicle: saline 101 % of control

CC1=C(N)C(=O)c2c(COC(N)=O)c3n(c2C1=O)C[C@H]1N[C@@H]31
inactive: endpoint: mean survival time, dose: 3.0 mg/kg/injection, schedule: Q01DX001 (ip), vehicle: distilled water + Tween-80 105 % of control | endpoint: mean survival time, dose: 6.0 mg/kg/injection, schedule: Q01DX001 (ip), vehicle: distilled water + Tween-80 100 % of control | endpoint: mean survival time, dose: 12.0 mg/kg/injection, schedule: Q01DX001 (ip), vehicle: distilled water + Tween-80 100 % of control | endpoint: mean survival time, dose: 24.0 mg/kg/injection, schedule: Q01DX001 (ip), vehicle: distilled water + Tween-80 100 % of control | endpoint: mean survival time, dose: 48.0 mg/kg/injection, schedule: Q01DX001 (ip), vehicle: distilled water + Tween-80 94 % of control

COCC1OC(OC)C(OC(=O)c2ccccc2)C(OC(=O)c2ccccc2)C1OC (stereo not given)
inactive: endpoint: mean survival time, dose: 100.0 mg/kg/injection, schedule: Q01DX001 (ip), vehicle: saline with Tween-80 90 % of control | endpoint: mean survival time, dose: 200.0 mg/kg/injection, schedule: Q01DX001 (ip), vehicle: saline with Tween-80 91 % of control | endpoint: mean survival time, dose: 400.0 mg/kg/injection, schedule: Q01DX001 (ip), vehicle: saline with Tween-80 90 % of control

O=C(O)CNS(=O)(=O)c1ccccc1
inactive: [4] 98 % of control | [6] 101 % of control | [8] 93 % of control

Cc1nc2ccc(Cl)cc2c(=O)o1
inactive: endpoint: mean survival time, dose: 100.0 mg/kg/injection, schedule: Q01DX009 (ip), vehicle: saline with Tween-80 103 % of control | [4] 96 % of control | endpoint: mean survival time, dose: 200.0 mg/kg/injection, schedule: Q01DX009 (ip), vehicle: saline with Tween-80 103 % of control | [6] 93 % of control | endpoint: mean survival time, dose: 400.0 mg/kg/injection, schedule: Q01DX009 (ip), vehicle: saline with Tween-80 96 % of control | [8] 93 % of control

Cc1cc(Cl)c(OCC(=O)O)c(Cl)c1
inactive: [4] 100 % of control | [6] 100 % of control
